{"source": "patent US20220088144A1", "about": "“SGLT-2 INHIBITORS OR IL-1R ANTAGONISTS FOR REDUCTION OF HYPOGLYCAEMIA AFTER BARIATRIC SURGERY” (UNIVERSITÄTSSPITAL BASEL, priority 2019, published 2022)", "key": {"[1]": {"conditions": "cited from earlier work"}, "[2]": {"target": "T1, sodium glucose co-transporter 2 (SGLT2) (Homo sapiens, UniProt P31639)", "T1 construct": "SGLT2 is predominantly expressed in the proximal tubule of the kidney; host or cells: endogenous transporter of the kidney proximal tubule (in vivo, patients)", "T1 sequence (P31639 1-672)": "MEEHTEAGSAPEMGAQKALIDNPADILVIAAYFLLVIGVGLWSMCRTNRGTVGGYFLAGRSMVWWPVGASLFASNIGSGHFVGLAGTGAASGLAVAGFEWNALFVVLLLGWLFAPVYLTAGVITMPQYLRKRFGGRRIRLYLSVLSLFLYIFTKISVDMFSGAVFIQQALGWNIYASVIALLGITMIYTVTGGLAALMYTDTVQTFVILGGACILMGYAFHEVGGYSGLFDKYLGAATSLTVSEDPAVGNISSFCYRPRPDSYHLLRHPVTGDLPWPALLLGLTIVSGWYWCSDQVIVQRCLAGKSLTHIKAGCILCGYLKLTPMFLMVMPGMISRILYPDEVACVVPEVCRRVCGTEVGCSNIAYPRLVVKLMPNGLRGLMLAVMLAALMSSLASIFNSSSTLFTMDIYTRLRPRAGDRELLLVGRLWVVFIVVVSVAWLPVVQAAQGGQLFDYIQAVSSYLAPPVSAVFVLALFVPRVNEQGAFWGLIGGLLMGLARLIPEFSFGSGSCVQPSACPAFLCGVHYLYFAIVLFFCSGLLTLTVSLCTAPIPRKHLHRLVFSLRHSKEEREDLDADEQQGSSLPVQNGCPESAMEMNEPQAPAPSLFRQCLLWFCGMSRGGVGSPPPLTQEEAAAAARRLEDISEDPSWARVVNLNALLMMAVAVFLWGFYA", "conditions": "cited from earlier work"}, "[3]": {"assay": "Serum IL-1Ra level after anakinra injection", "format": "in vivo, human", "conditions": "average; 100 mg s.c.; increased from an average of 272 pg/ml", "description": "The secondary objectives are to evaluate whether treatment of empagliflozin (Jardiance®) or anakinra (Kineret®) have effects on the following aspects: • level of insulin secretion and sensitivity • levels of GLP-1, glucagon and C-peptide • levels of IL-6; IL-1Ra, CRP • scores in Edinburgh Hypoglycaemia Scale (clinical score for assessment of hypoglycemia), Stanford Sleepiness Scale (clinical score of assessment of sleepiness) as well as Sigstad Score (clinical score for early and late dumping symptoms) • Length of time and amount of glucose needed for restoring normoglycemia.\nIndividual body weights remained stable throughout the study period. […] Leukocyte and CRP levels were not elevated and remained stable throughout the trial."}, "[4]": {"conditions": "cited from earlier work", "remark": "listed apart in the source"}}}
{"molecule": "OC[C@H]1O[C@@H](c2ccc(Cl)c(Cc3ccc(O[C@H]4CCOC4)cc3)c2)[C@H](O)[C@@H](O)[C@@H]1O", "note": "[empagliflozin]", "values": [{"measurement": "mean Plasma-AUC in the steady state", "setting": "[1]", "result": 1.87, "unit": "µM·h"}, {"measurement": "duration of glucosuria", "setting": "[2]; after oral administration", "result": "at least 24 hours"}, {"measurement": "glucosuria", "setting": "[2]; in vivo", "result": 64, "unit": "g glucose per day"}]}
{"molecule": "anakinra: CAS NO 143090-92-0; recombinant, non-glycosylated form of the human interleukin-1 receptor antagonist (IL-1 Ra), 153 amino acids", "values": [{"measurement": "serum levels of IL-1Ra after injection of anakinra", "setting": "[3]", "result": 43.836, "unit": "ng/mL"}, {"measurement": "reduction of WBC/ANC", "setting": "[4]; share of patients", "result": 2.4, "unit": "%"}, {"measurement": "mild and transient local injection reactions", "setting": "[4]; share of subjects treated", "result": "20-50%"}]}
